# Measurements published in paper PMC6302136, “Quantitative Chemotherapeutic Profiling of Gynecologic Cancer Cell Lines Using Approved Drugs and Bioactive Compounds^” (Translational Oncology, 2018).
# Read-outs that look alike come from different tables or passages of the source.
# Experiments:
# [1] = test system: 11 gynecologic cancer cell lines; assay: qHTS ATPlite cell viability, gynecologic cancer cell lines (ovarian, cervical, placental); assay type: cell-based, human; settings: for Cell Lines Active: number of the 11 cancer cell lines in which the compound is active (<1 μM potency, >70% efficacy); for Average SI: selectivity index vs HEK 293T
# Procedure: (§1) The ATPlite luminescence assay system assay kit was used to determine cell viability. The reagent was reconstituted and prepared as described by the manufacturer. To measure the cell death caused by the compounds, cells were cultured in 4 μl of media for 16 hours at 37°C with 5% CO2 in assay plates, followed by the addition of DMSO or 16 SOC chemotherapeutic compounds dissolved in DMSO. SOC compounds were dosed at 11 concentrations (1:3 dilution) in quadruplicate from 57.5 μM to 0.977 nM using the automated Wako 1536 Pin Tool workstation and incubated at 37°C with 5% CO2 for 24, 48, or 72 hours. Four microliters of ATPlite, the ATP monitoring reagent, was then added to each well of the assay plates using the Multidrop Combi reagent dispenser followed by incubation for 15 minutes at room temperature. The resulting luminescence was measured using the ViewLux plate reader. Data were normalized for each drug using the largest luminescence value as 100% full cell viability (0% cell killing) and to the smallest luminescence value 0% viability (100% cell killing).
# (§2) A qHTS [79], in which each compound was assayed in five concentrations (0.092, 0.46, 2.3, 11.5, and 57.5 μM), was performed for the primary compound screen using the NPC [80] and NPACT drug libraries at NCATS. The OBGYN cancer and HEK 293T control cells were seeded into 1536-well assay plates at 1000 cells per 4 μl/well and incubated at 37°C in 5% CO2 for 48 hours. The ATPlite assay to determine the IC50 values for each compound was conducted as described above. Plates were processed on the fully integrated Kalypsys robotic system.
# PA-1 cells = assay: ATP content (ATPlite) cell viability assay in PA-1 cells; assay type: cell-based, human; settings: for IC50: Homo sapiens, PA-1, confirmation screen, 48 h, read-out: Avg IC50; for Avg SI: PA-1 selective compounds, vs HEK 293T, >100 = inactive in HEK293T
# HEK 293T cells [2] = test system: HEK 293T cells; parameters: method as in PMID 31498718; settings: CellTiterGlo, cited from earlier work; for IC50: independent screen
# HEK 293T cells [3] = assay: cells; settings: for IC50: read-out: IC50 (HEK 293T toxicity)
# Procedure: as §1, §2
# HeLa cells = assay: qHTS ATPlite cell viability, HeLa cells; assay type: cell-based, human; settings: for Avg SI: HeLa selective compounds, vs HEK 293T; for IC50: HeLa, confirmation screen, 48 h
# [4] = test system: placental cancer cell lines (JAR, JEG-3); assay: qHTS ATPlite cell viability, placental cancer cell lines; assay type: cell-based, human; settings: for Average SI: vs HEK 293T, >100 = inactive in HEK293T
# Procedure: as §1
# The ATPlite assay to determine the IC50 values for each compound was conducted as described above. Plates were processed on the fully integrated Kalypsys robotic system.
# [5] = test system: ovarian cancer cell lines; assay: qHTS ATPlite cell viability, ovarian cancer cell lines; assay type: cell-based, human; settings: Ovarian cell line killer; for IC50: mean of cell lines fulfilling criteria, 48 h, read-out: Average IC50; for Average SI: vs HEK 293T, >100 = inactive in HEK293T
# [6] = Homo sapiens, average IC90 over the cell lines in which the compound is active, read-out: IC90
# [7] = HEK 293T, this screen (ATPlite), 48 h
# [8] = toxic compounds, average over all cancer cell lines, mean ± S.D.
# [9] = Homo sapiens, JEG-3, Placental cancer cell line killer, mean of cell lines fulfilling criteria, 48 h, read-out: Average IC50
# [10] = Placental cancer cell line killer
# [11] = Homo sapiens, toxic compounds, average over all cancer cell lines, 48 h, mean ± S.D., read-out: Average IC50
compound,measurement,setting,value
CCc1c2c(nc3ccc(O)cc13)-c1cc3c(c(=O)n1C2)COC(=O)[C@]3(O)CC [SN-38],IC90,"[1]; average IC90 over the cell lines in which the compound is active, read-out: IC90",592 nM
same,Cell Lines Active,[1],4
CC[C@@]1(O)C(=O)OCc2c1cc1n(c2=O)Cc2c-1nc1ccccc1c2/C=N/OC(C)(C)C [Gimatecan],IC50,PA-1 cells,33.7 nM
same,Avg SI,PA-1 cells,12.5
same,IC90,[1]; [6],275 ± 28 nM
same,Cell Lines Active,[1],4
Cc1ccc(C(=O)Nc2ccc(CN3CCN(C)CC3)c(C(F)(F)F)c2)cc1C#Cc1cnc2cccnn12 [Ponantinib],"Efficacy (%) (independent screen, HEK 293T)",HEK 293T cells [2],92.6%
same,Independent Screen (confirmation of HEK 293T toxicity),HEK 293T cells [2],Confirmed toxic
same,IC50,HEK 293T cells [2],811 nM
same,Efficacy (%) (HEK 293T toxicity),HEK 293T cells [3]; [7],92%
same,IC50,"HEK 293T cells [3]; Homo sapiens, HEK-293T, 48 h",19900 nM
same,IC50,"[1]; Homo sapiens, 48 h, read-out: Average IC50 (μM)",15.9 ± 9.07 µM
same,Average SI,[1]; [8],3.56 ± 4.85
O=C(CCCCCCC(=O)Nc1ccccc1)NO [Vorinostat],"Efficacy (%) (independent screen, HEK 293T)",HEK 293T cells [2],80.2%
same,Independent Screen (confirmation of HEK 293T toxicity),HEK 293T cells [2],Confirmed toxic
same,Efficacy (%) (HEK 293T toxicity),HEK 293T cells [3]; [7],64.7%
same,toxicity to HEK 293T cells,HEK 293T cells [3]; compared with suppression of the 11 gynecologic cancer cell lines,equally toxic to HEK 293T cells
COc1cccc2c1C(=O)c1c(O)c3c(c(O)c1C2=O)C[C@@](O)(C(=O)CO)C[C@@H]3O[C@H]1C[C@H](N)[C@H](O[C@@H]2CCCCO2)[C@H](C)O1 [Pirarubicin],IC50,PA-1 cells,839 nM
same,Avg SI,PA-1 cells,14.6
COc1cc(N2CCC(N)CC2)ccc1Nc1ncc(Cl)c(-c2c[nH]c3ccccc23)n1 [AZD3463],Avg SI,HeLa cells,30.3
same,IC50,HeLa cells,638 nM
Cc1csc(NC(=O)CSc2nc3c(c(C(F)(F)F)c2C#N)CCC3)n1 [Irestatin 9389],Efficacy (%) (HEK 293T toxicity),HEK 293T cells [3]; [7],102%
same,IC50,HEK 293T cells [3]; [7],1340 nM
same,IC50,"[1]; toxic compounds, average over all cancer cell lines, 48 h, mean ± S.D., read-out: Average IC50",3.52 ± 3.12 µM
same,Average SI,[1]; [8],0.51 ± 0.20
C[C@@H](Oc1cc(-n2cnc3ccc(CN4CCN(C)CC4)cc32)sc1C(N)=O)c1ccccc1C(F)(F)F [GSK461364],IC50,[4]; [9],3.52 ± 0.133 µM
same,Average SI,[4]; [10],8.81 ± 0.333
CCN(CC)Cc1ccc2cc(COC(=O)Nc3ccc(C(=O)NO)cc3)ccc2c1 [Givinostat],"Efficacy (%) (independent screen, HEK 293T)",HEK 293T cells [2],112%
same,Independent Screen (confirmation of HEK 293T toxicity),HEK 293T cells [2],Confirmed toxic
same,IC50,HEK 293T cells [2],1110 nM
same,Efficacy (%) (HEK 293T toxicity),HEK 293T cells [3]; [7],65.6%
same,IC50,"HEK 293T cells [3]; Homo sapiens, HEK-293T, 48 h",2910 nM
same,toxicity to HEK 293T cells,"HEK 293T cells [3]; human, 48 h",equally toxic to HEK 293T cells
same,IC50,[1]; [11],3.5 ± 3.88 µM
same,Average SI,[1]; [8],1.74 ± 1.25
Cc1cc(Nc2nc(N[C@@H](C)c3ccc(F)cc3)c(C#N)cc2F)[nH]n1 [AZ-960],IC50,[5]; Homo sapiens,12000 ± 7750 nM
same,Average SI,[5],>100
COc1c(C)c2c(c(O)c1C/C=C(\C)CCC(=O)OCCN1CCOCC1)C(=O)OC2 [Mycophenolate mofetil],IC50,PA-1 cells,631 nM
same,Avg SI,PA-1 cells,>100
same,Avg SI,PA-1 cells; listed as mycophenolate mofetil,> 100
CC(C)CC(=O)Nc1[nH]nc2c1CN(C(=O)C1CCN(C)CC1)C2(C)C [PHA-793887],IC50,PA-1 cells,194 nM
same,Avg SI,PA-1 cells,12.3
COc1ccc2cc3[n+](cc2c1OC)CCc1cc2c(cc1-3)OCO2 [Berberine],IC50,[4]; [9],4.41 ± 0.662 µM
N=C(N)c1ccc(OCCCCCOc2ccc(C(=N)N)cc2)cc1 [Nebupent],IC50,[4]; [9],4.9 ± 1.02 µM
same,Average SI,[4]; [10],>100
O=C(Nc1cccnc1)N1CCC(Cc2cccc(Oc3ccc(C(F)(F)F)cn3)c2)CC1 [PF-3845],IC50,[4]; [9],9.31 ± 1.15 µM
same,Average SI,[4]; [10],>100
i-Bet-151,IC50,"[4]; Placental cancer cell line killer, mean of cell lines fulfilling criteria, 48 h, read-out: Average IC50",19.3 ± 9.13 µM
same,Average SI,[4]; [10],>100
CNc1nccc(-c2cccnc2Oc2cc(C(=O)Nc3cccc(C(F)(F)F)c3)ccc2C)n1 [AMG-Tie2-1],IC50,[5],15900 ± 9710 nM
same,Average SI,[5],>100
CN(NC(=O)CC(=O)NN(C)C(=S)c1ccccc1)C(=S)c1ccccc1 [Elesclomol],IC90,[1]; [6],283 nM
same,IC50,"[1]; Homo sapiens, average over the cell lines in which the compound was active, read-out: average IC50",0.173 µM
same,Cell Lines Active,[1],six
same,Cell Lines Active,[1]; listed as Elesclomol (STA-4783),6
CC(C)C[C@H](NC(=O)[C@@H](NC(=O)c1cccc(-c2ccccc2)n1)[C@@H](C)O)B(O)O [CEP-18770 (Delanzomib)],IC90,[1]; [6],391 nM
same,Cell Lines Active,[1],6
COc1cc(Nc2ncc(F)c(Nc3ccc4c(n3)N(COP(=O)(O)O)C(=O)C(C)(C)O4)n2)cc(OC)c1OC [Fostamitinib],IC50,[5]; Homo sapiens,6240 ± 4060 nM
same,Average SI,[5],>100
same,Average SI,[5]; listed as fostamatinib,> 100
CCS(=O)(=O)c1cccc(-c2cc(C(=O)NC3CCN(C)CC3)c(C)c3[nH]c4ncc(C)cc4c23)c1 [TAK 901],Avg SI,HeLa cells,12.6
same,IC50,HeLa cells; Homo sapiens,699 nM
C[C@@H](Oc1ccc2[nH]nc(/C=C/c3cnn(CCO)c3)c2c1)c1c(Cl)cncc1Cl [LY2874455],Avg SI,HeLa cells,38.8
same,IC50,HeLa cells; Homo sapiens,240 nM
CC[C@@H]1C(=O)N(C)c2cnc(Nc3ccc(C(=O)NC4CCN(C)CC4)cc3OC)nc2N1C1CCCC1 [BI-2536],IC90,[1]; Homo sapiens,39.7 nM
same,Cell Lines Active,[1],4
C=CC(=O)Nc1cccc(Oc2nc(Nc3ccc(N4CCN(C)CC4)cc3)ncc2Cl)c1 [WZ3146],IC50,[5],12300 ± 8520 nM
same,Average SI,[5],>100
COc1ccc(-c2ccc3ncc4c(c3c2)n(-c2ccc(N3CCNCC3)c(C(F)(F)F)c2)c(=O)n4C)cn1 [NVP-BGT226],"Efficacy (%) (independent screen, HEK 293T)",HEK 293T cells [2],115%
same,Independent Screen (confirmation of HEK 293T toxicity),HEK 293T cells [2],Confirmed toxic
same,IC50,HEK 293T cells [2],14.5 nM
same,Efficacy (%) (HEK 293T toxicity),HEK 293T cells [3]; [7],106%
same,IC50,"HEK 293T cells [3]; Homo sapiens, HEK-293T, 48 h",258 nM
same,IC50,[1]; [11],5.34 ± 6.56 µM
same,Average SI,[1]; [8],0.20 ± 0.26
CC[C@@H]1C(=O)N(C)c2cnc(Nc3ccc(C(=O)N[C@H]4CC[C@H](N5CCN(CC6CC6)CC5)CC4)cc3OC)nc2N1C(C)C [Volasertib],IC50,[4]; [9],0.0709 ± 0.00735 µM
same,Average SI,[4]; [10],131 ± 13.5
same,IC90,[1]; [6],90 nM
same,Cell Lines Active,[1],4
C=C(C)[C@H]1Cc2c(ccc3c2O[C@@H]2COc4cc(OC)c(OC)cc4[C@@H]2C3=O)O1 [Rotenone],IC50,"[4]; Homo sapiens, JEG-3, 48 h, read-out: Average IC50 (μM)",0.0418 ± 0.0134 µM
same,Average SI,[4]; [10],19.5 ± 6.26
CNC(=O)c1ccccc1Nc1nc(Nc2ccc(N3CCOCC3)cc2OC)ncc1Cl [TAE226],IC50,[5],5320 ± 1420 nM
same,Average SI,[5],8.76 ± 2.40
CN(C)C1CCN(C(=O)c2ccc(NC(=O)Nc3ccc(-c4nc(N5CCOCC5)nc(N5CCOCC5)n4)cc3)cc2)CC1 [Gedatolisib],IC90,[1]; Homo sapiens,6800 nM
same,Cell Lines Active,[1],4
